Results reported in patent US8859545B2, “Tetrahydronaphthyridine and tetrahydropyrido[4,3-D]pyrimidine compounds and compositions thereof useful for the treatment of inflammatory and respiratory diseases” (Evotec AG, priority 2005, dated 2014).

What follows are molecules tested on P2X2/3 chimera (P2X2/3C) (assay: Calcium uptake assay (P2X antagonist assay, agonist-induced calcium influx)). Details: at 3 μM (symbol before the slash).
Format: cell-based
Source text: Human P2X3 (Accession no. NM_002559), P2X2 (Accession no. NM_170682) and Rat P2X3 (Accession no. NM_031075) and P2X2 (Accession no. NM_053656) are cloned into a mammalian expression vector (e.g., pcDNA5/TO or pcDNA3 Invitrogen). For coexpression of P2X2 and P2X3, the coding regions of both receptors were cloned into a bicistronic vector using methods similar to those described by Kawashima et al., Receptors Channels 5:53-60, 1998. The P2X2/3 chimera clone was created as described by Neelands et al, and then cloned into an expression vector as above. Receptors are expressed in cells (e.g., HEK293 or 1321N1) via transient transfection using standard lipid mediated transfection, or by creation of stable transfectants for each receptor. Cell lines are maintained in DMEM+5% Glutamax, the appropriate level of selective antibiotic, and 10% heat inactivated FBS.
The agonist EC50 is determined at the start of the assay and compound IC50 experiments are run using a set agonist concentration (EC50-90 depending on cell line) as stimulus. The agonists used are αβMeATP, ATP, or other ATP analogs. Compounds may be tested at concentrations ranging from 1 μM to 10 μM. Functional activity of compounds at the P2X receptor is determined by measuring their ability to inhibit agonist-induced calcium influx. Compounds may be tested for antagonist activity against the P2X2/3 chimera, the P2X3 homomer, or the P2X2/3 heteromer. To test for antagonist activity, cells expressing the appropriate receptor are seeded onto 96 or 384 well plates 18-24 hours prior to assay. On the day of the assay, cells are loaded with calcium-sensitive fluorescent dye (e.g., Fluo-4 no wash reagent-Invitrogen cat# F36206, or the BD™ PBX Calcium Assay Kit-BD cat#640175) in Hank's Buffered Salt Solution (HBSS) with up to 10 mM supplemental CaCl2. Plates are incubated at 37° C. and then equilibrated at room temperature. Antagonism of agonist-induced calcium influx is measured using a fluorescent imaging plate reader. The assay comprises two stages: a pre-treatment phase followed by a treatment phase. Compounds may be tested as follows: For the pre-treatment phase, 50 μL of 3× concentration of test compound in HBSS is added to cells containing 100 μL of dye loading media to achieve a final concentration of 1×. For the treatment phase, at a set interval after pre-treatment, 50 μL of 1× test compound plus 4× agonist solution is added to cells. Fluorescence is measured at 0.1-3 second intervals with an excitation wavelength of 494 nm and an emission wavelength of 515 nm. Responses are measured as peak fluorescence after compound-agonist addition minus baseline fluorescence prior to treatment. Percent inhibition is calculated as follows: […]
A calcium uptake assay was performed as described in paragraphs […] above.

SMILES	Ca Influx P2X2/3C % Inhibition at 3 μM/10 μM
Cc1ccc(N2CCc3ncnc(NCc4ccc(F)c(C(F)(F)F)c4)c3C2)nc1 [Compound 76]	+/ (compound exhibited 0-25% inhibition at 3 μM)
Cc1ccc(N2CCc3ncnc(NCCc4ccccc4Cl)c3C2)nc1 [Compound 32]	++++ (compound exhibited 75% or greater inhibition at 3 μM)
CCc1ccc(CN(C)c2ncnc3c2CN(c2ccc(C)cn2)CC3)cc1 [Compound 65]	+/ (compound exhibited 0-25% inhibition at 3 μM)
COc1ccccc1CN(C)c1ncnc2c1CN(c1ccc(C)cn1)CC2 [Compound 63]	+/ (compound exhibited 0-25% inhibition at 3 μM)
Cc1ccc(N2CCc3ncnc(NCc4cc(Cl)cc(Cl)c4)c3C2)nc1 [Compound 115]	+/ (compound exhibited 0-25% inhibition at 3 μM)
Cc1ccc(N2CCc3ncnc(NCc4cc(F)ccc4F)c3C2)nc1 [Compound 71]	+++/ ^ (compound exhibited 50-75% inhibition at 3 μM)
Cc1ccc(N2CCc3ncnc(N(C)Cc4ccc(C(F)(F)F)cc4)c3C2)nc1 [Compound 69]	+/ (compound exhibited 0-25% inhibition at 3 μM)
Cc1ccc(N2CCc3ncnc(NCc4cc(Cl)ccc4F)c3C2)nc1 [Compound 111]	+++/ ^ (compound exhibited 50-75% inhibition at 3 μM)
Cc1ccc(N2CCc3ncnc(NCc4cc(C(F)(F)F)ccc4Cl)c3C2)nc1 [Compound 89]	+ (compound exhibited 0-25% inhibition at 3 μM)
COc1ccc(CCNc2ncnc3c2CN(c2ccc(C)cn2)CC3)cc1OC [Compound 47]	+++/ ^ (compound exhibited 50-75% inhibition at 3 μM)

Same assay, conditions: at 10 μM (symbol after the slash)

SMILES	Ca Influx P2X2/3C % Inhibition at 3 μM/10 μM
Cc1ccc(N2CCc3ncnc(NCCc4ccccc4Cl)c3C2)nc1 [Compound 32]	**** (compound exhibited 25-50% inhibition at 10 μM)
Cc1ccc(N2CCc3ncnc(NCc4cc(C(F)(F)F)ccc4Cl)c3C2)nc1 [Compound 89]	* (compound exhibited 0-25% inhibition at 10 μM)
